24 compounds from ChEMBL document CHEMBL1140732, “2-(3-aryl-3-oxopropen-1-yl)-9-tert-butyl-paullones: a new antileishmanial chemotype” (J Med Chem, 2008) can be followed below.

For series [1], the system named is Leishmania donovani. In words: microbe, parasite or virus in culture. The format is functional. Conditions: 1S-C12d.
Description: Antileishmanial activity against Leishmania donovani MHOM/SD/1962/1S-C12d axenic amastigotes by alamar blue viability assay
For series [2], the system named is Leishmania donovani. Nature of the series: microbe, parasite or virus in culture. It is filed as functional. The note with it: 1S-C12d. The source holds these as a separate data set.
Description: Antileishmanial activity against Leishmania donovani MHOM/SD/1962/1S-C12d axenic amastigotes at 15 uM by alamar blue viability assay
For series [3], the system named is Leishmania donovani. Nature of the series: microbe, parasite or virus in culture. The note with it: 1S-C12d, THP-1. It is filed as functional.
Description: Growth inhibition of Leishmania donovani MHOM/SD/1962/1S-C12d axenic amastigotes in infected THP1 macrophages at 5 uM by alamar blue viability assay
Series [4] has as its system THP-1. In words: Toxicity against human THP1 cells at 5 uM by alamar blue viability assay. Conditions: thp-1, 5 µM. (In general: Alamar Blue is a resazurin reagent that responds to reducing activity.)
The test system of series [5] is Leishmania donovani. In words: Growth inhibition of Leishmania donovani MHOM/SD/1962/1S-C12d […] amastigotes in infected THP1 macrophages at 1 uM by alamar blue viability assay. Conditions: THP-1. It is filed as functional.
Series [6] has as its system THP-1. Nature of the series: Toxicity against human THP1 cells at 1 uM by alamar blue viability assay. It is filed as cell-based. The note with it: thp-1, 1 µM.
A short description of series [7]: Inhibition of fumarate reductase in permeabilized Leishmania major promastigotes.
The nature of series [8]: Inhibition of fumarate reductase in crude mitochondria fraction of Leishmania major promastigotes.
Series [9] deals with Leishmania donovani. In words: Inhibition of Leishmania donovani infection in mouse macrophages. The format is functional. Conditions: read-out: ED50 (the source's name).
Series [10] can be described thus: Toxicity against mouse macrophages at 10 uM. The format is cell-based. The note with it: macrophage.

Structures are written as SMILES.

Consider `CC(=O)/C=C/c1ccc2c(c1)-c1[nH]c3ccc(C)cc3c1CC(=O)N2`, for which, in [1], the GI50 (usually the concentration giving 50% growth inhibition) was 12000 nM. The inhibition (commonly the change of the read-out against control, counted positive when it falls) at 15 µM in series [2] is 65.2%. The same compound had an inhibition at 5 µM in series [3] of 0%. This compound also had an Activity in series [4] of 0%.

Take `CC(=O)/C=C/c1ccc2c(c1)-c1[nH]c3ccc(C#N)cc3c1CC(=O)N2`: the inhibition at 15 µM in [2] turned out to be 9.8%. This compound also showed an inhibition at 5 µM in [3] of 0%. In series [4], this compound registered an Activity of 48%.

In series [1], `CC(=O)/C=C/c1ccc2c(c1)-c1[nH]c3ccc(C(C)(C)C)cc3c1CC(=O)N2` yielded a GI50 of 2800 nM. Further, in series [2], the inhibition at 15 µM is 99%. In addition, 5 µM produced 56.2% inhibition in series [3]. The Activity in series [4] amounted to 62%.

In turn, `O=C1Cc2c([nH]c3ccccc23)-c2cc(/C=C/C(=O)c3ccccc3)ccc2N1` gave a GI50 in series [1] of 5000 nM. For the same compound, at 15 µM the inhibition in series [2] was 99.6%. For the same compound, in [3], testing at 5 µM gave an inhibition of 0%. This compound also displayed an Activity in series [4] of 0%.

The compound `Cc1ccc2[nH]c3c(c2c1)CC(=O)Nc1ccc(/C=C/C(=O)c2ccc(Cl)cc2)cc1-3` registered an inhibition at 15 µM in series [2] of 17.4%. In series [3], this compound displayed an inhibition at 5 µM of 0%. For the same compound, the Activity in series [4] amounted to 0%.

With `CC(C)(C)c1ccc2[nH]c3c(c2c1)CC(=O)Nc1ccc(/C=C/C(=O)c2ccccc2)cc1-3`, in series [1], the GI50 amounted to 1100 nM. Also, 15 µM produced 99% inhibition in series [2]. Moreover, the inhibition at 5 µM in series [3] was found to be 61.8%. Also, the Activity in series [4] came to 0%.

With `COc1ccc(C(=O)/C=C/c2ccc3c(c2)-c2[nH]c4ccc(C(C)(C)C)cc4c2CC(=O)N3)cc1`, the GI50 in [1] was 1200 nM. In series [2], this compound came in with an inhibition at 15 µM of 97.5%. Further, in series [3], the inhibition at 5 µM was determined as 71.7%. For the same compound, the Activity in series [4] was 0%.

In turn, `CC(C)(C)c1ccc2[nH]c3c(c2c1)CC(=O)Nc1ccc(/C=C/C(=O)c2ccc(Cl)cc2)cc1-3` displayed a GI50 in series [1] of 1200 nM. Also, 15 µM produced 98.3% inhibition in series [2]. 5 µM produced 76.8% inhibition in series [3]. The same compound gave an Activity in [4] of 0%.

`CC(C)(C)c1ccc2[nH]c3c(c2c1)CC(=O)Nc1ccc(/C=C/C(=O)c2ccco2)cc1-3`: growth in series [1] was halved (GI50) at 760 nM. Further, 15 µM produced 97.6% inhibition in series [2]. Moreover, the inhibition at 5 µM in series [3] came to 76.2%. This compound had an Activity in [4] of 3.3%.

`CC(C)(C)c1ccc2[nH]c3c(c2c1)CC(=O)Nc1ccc(/C=C/C(=O)c2cccnc2)cc1-3` returned a GI50 in [1] of 780 nM. This compound also gave an inhibition at 15 µM in [2] of 98.1%. Further, 5 µM produced 76.2% inhibition in series [3]. Also, the Activity in series [4] turned out to be 0%.

In [1], `COc1cc(C(=O)/C=C/c2ccc3c(c2)-c2[nH]c4ccc(C(C)(C)C)cc4c2CC(=O)N3)cc(OC)c1OC` showed a GI50 of 1100 nM. For the same compound, testing at 15 µM in series [2] gave an inhibition of 96.8%. This compound came in with an inhibition at 5 µM in series [3] of 99.2%. The same compound returned an Activity in series [4] of 92.7%.

Regarding `COc1ccc(OC)c(C(=O)/C=C/c2ccc3c(c2)-c2[nH]c4ccc(C(C)(C)C)cc4c2CC(=O)N3)c1`, growth in series [1] was halved (GI50) at 1100 nM. In [2], testing at 15 µM gave an inhibition of 96.8%. In series [3], 5 µM produced 93.8% inhibition. In [4], this compound registered an Activity of 95.7%.

In [1], `COc1ccc(C(=O)/C=C/c2ccc3c(c2)-c2[nH]c4ccc(C(C)(C)C)cc4c2CC(=O)N3)c(OC)c1` had a GI50 of 840 nM. The compound also registered an inhibition at 15 µM in series [2] of 93.6%. The same compound displayed an inhibition at 5 µM in series [3] of 85.6%. In series [4], this compound registered an Activity of 0%.

The compound `COc1ccc(C(=O)/C=C/c2ccc3c(c2)-c2[nH]c4ccc(C(C)(C)C)cc4c2CC(=O)N3)cc1OC` had a GI50 in [1] of 1000 nM. This compound registered an inhibition at 15 µM in [2] of 95.5%. Further, testing at 5 µM in series [3] gave an inhibition of 86%. The Activity in series [4] is on record as 49.7%.

`CC(=O)/C=C/c1ccc2c(c1)-c1[nH]c3ccccc3c1CC(=O)N2` displayed a concentration for 50% growth inhibition (GI50) in series [1] of 3400 nM. The compound further came in with an inhibition at 15 µM in [2] of 98.7%. This compound also registered an inhibition at 5 µM in series [3] of 11.4%. The compound further displayed an Activity in [4] of 0%.

`CC(=O)/C=C/c1ccc2c(c1)-c1[nH]c3ccc(F)cc3c1CC(=O)N2` registered an inhibition at 15 µM in [2] of 45.4%. The inhibition at 5 µM in series [3] is 0%. In addition, in series [4], the Activity is on record as 0%.

For `CC(C)(C)c1ccc2[nH]c3c(c2c1)CC(=O)Nc1ccc(/C=C/C(=O)c2cccs2)cc1-3`, in series [1], the GI50 worked out at 1000 nM. For the same compound, at 15 µM the inhibition in series [2] was 98.8%. Besides, the inhibition at 5 µM in [3] was 79.3%. The Activity in series [4] stood at 60.5%.

Compound `CC(C)(C)c1ccc2[nH]c3c(c2c1)CC(=O)Nc1ccc(/C=C/C(=O)c2ccc(O)cc2)cc1-3` gave a GI50 in [1] of 3000 nM. For the same compound, 15 µM produced 97.2% inhibition in series [2]. 5 µM produced 54.8% inhibition in [3]. Also, the Activity in [4] is 80.3%.

In series [1], `CC(C)(C)c1ccc2[nH]c3c(c2c1)CC(=O)Nc1ccc(/C=C/C#N)cc1-3` showed a 50% growth inhibitory concentration (GI50) of 3600 nM. In [2], this compound gave an inhibition at 15 µM of 63.8%. This compound also showed an inhibition at 5 µM in series [3] of 47.3%. This compound showed an Activity in [4] of 0%.

On to `CC(C)(C)c1ccc2[nH]c3c(c2c1)CC(=O)Nc1ccc(C#Cc2ccccc2)cc1-3`, for which the GI50 in series [1] was 860 nM. In [2], this compound displayed an inhibition at 15 µM of 79.6%. In addition, the inhibition at 5 µM in series [3] amounted to 72%. In series [4], the Activity was 9%.

Regarding `COc1ccc(C(=O)/C=C/c2ccc(NC(C)=O)cc2)cc1`, the inhibition at 15 µM in series [2] was determined as 69.6%.

On to `C[C@@H]1[C@H](O)[C@@H](C)/C=C/C=C/C=C/C=C/C=C/C=C/C=C/[C@H](O[C@@H]2O[C@H](C)[C@@H](O)[C@H](N)[C@@H]2O)C[C@@H]2O[C@](O)(C[C@@H](O)C[C@@H](O)[C@H](O)CC[C@@H](O)C[C@@H](O)CC(=O)O[C@H]1C)C[C@H](O)[C@H]2C(=O)O` (stereo in doubt) [AMPHOTERICIN B], for which the inhibition at 1 µM in series [5] is above 90%. In [6], this compound showed an Activity above 90%.

For the compound `C=CC(C)(C)c1cc(/C=C/C(=O)c2ccc(O)cc2)c(OC)cc1O` [LICOAGROCHACONE A], the IC50 (usually the concentration at which inhibition is half-maximal) in [7] turned out to be 1200 nM; in [8], 1400 nM.

For the compound `N#Cc1ccc2[nH]c3c(c2c1)CC(=O)Nc1ccccc1-3` [PAULLONE 2], the EC50 in [9] was determined as 19600 nM. For the same compound, in series [10], the Activity result was “Toxic”.
